Experimental data: PubChem BioAssay (NCI)
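Assay format: 96-well plates, 48-hour exposure. The concentration for full growth arrest is given as TGI.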

Each compound was assayed on MOLT-4 leukemia (assay: growth of human tumour cells (NCI), 48 h).

Row | SMILES | TGI
1 | CC(=O)OC1CC2CC(=O)CC1N2C (stereo not drawn) | > 100 µM

These compounds were tested on NCI-H226 lung (assay: growth of human tumour cells (NCI), 48 h).

Row | SMILES | TGI
2 | COc1ccc(-c2csc(-n3c(-c4ccccc4)nc4c(Br)cc(Br)cc4c3=O)n2)cc1 | 90.7 µM
3 | CC(CCOc1c2ccoc2cc2oc(=O)ccc12)C1=CC(=O)C(C)(C)O1 (stereo not drawn) | > 100 µM
4 | O=C1c2ccccc2-c2nc(-c3ccncc3)cc3c2c1nc1ccccc13 | > 100 µM
5 | CC(=O)OC1CC2CC(=O)CC1N2C (stereo not drawn) | > 100 µM

These compounds were tested on NCI-H23 lung (assay: growth of human tumour cells (NCI), 48 h).

Row | SMILES | TGI
6 | Cc1ccc(NC(=O)/C(CC2N=c3c(ccc4c(O)c5ccccc5c(O)c34)=NC2O)=N/NC(C)(C)C)cc1 (stereo not drawn) | 83.9 µM
7 | COc1ccc(-c2csc(-n3c(-c4ccccc4)nc4c(Br)cc(Br)cc4c3=O)n2)cc1 | 69.4 µM
8 | CC(CCOc1c2ccoc2cc2oc(=O)ccc12)C1=CC(=O)C(C)(C)O1 (stereo not drawn) | > 100 µM
9 | O=C1c2ccccc2-c2nc(-c3ccncc3)cc3c2c1nc1ccccc13 | 41.3 µM
10 | CC(=O)OC1CC2CC(=O)CC1N2C (stereo not drawn) | > 100 µM

The compounds below were run on NCI-H460 lung (assay: growth of human tumour cells (NCI), 48 h).

Row | SMILES | TGI
11 | Cc1ccc(NC(=O)/C(CC2N=c3c(ccc4c(O)c5ccccc5c(O)c34)=NC2O)=N/NC(C)(C)C)cc1 (stereo not drawn) | 26.4 µM
12 | COc1ccc(-c2csc(-n3c(-c4ccccc4)nc4c(Br)cc(Br)cc4c3=O)n2)cc1 | > 100 µM
13 | CC(CCOc1c2ccoc2cc2oc(=O)ccc12)C1=CC(=O)C(C)(C)O1 (stereo not drawn) | > 100 µM
14 | O=C1c2ccccc2-c2nc(-c3ccncc3)cc3c2c1nc1ccccc13 | 90.9 µM
15 | CC(=O)OC1CC2CC(=O)CC1N2C (stereo not drawn) | > 100 µM

What follows are compounds tested on NCI-H522 lung (assay: growth of human tumour cells (NCI), 48 h).

Row | SMILES | TGI
16 | Cc1ccc(NC(=O)/C(CC2N=c3c(ccc4c(O)c5ccccc5c(O)c34)=NC2O)=N/NC(C)(C)C)cc1 (stereo not drawn) | 97.2 µM
17 | COc1ccc(-c2csc(-n3c(-c4ccccc4)nc4c(Br)cc(Br)cc4c3=O)n2)cc1 | > 100 µM
18 | CC(CCOc1c2ccoc2cc2oc(=O)ccc12)C1=CC(=O)C(C)(C)O1 (stereo not drawn) | 71.3 µM
19 | O=C1c2ccccc2-c2nc(-c3ccncc3)cc3c2c1nc1ccccc13 | 30.7 µM
20 | CC(=O)OC1CC2CC(=O)CC1N2C (stereo not drawn) | > 100 µM

What follows are compounds tested on NCI/ADR-RES ovarian (assay: growth of human tumour cells (NCI), 48 h).

Row | SMILES | TGI
21 | Cc1ccc(NC(=O)/C(CC2N=c3c(ccc4c(O)c5ccccc5c(O)c34)=NC2O)=N/NC(C)(C)C)cc1 (stereo not drawn) | 20.2 µM
22 | COc1ccc(-c2csc(-n3c(-c4ccccc4)nc4c(Br)cc(Br)cc4c3=O)n2)cc1 | 85.5 µM
23 | CC(CCOc1c2ccoc2cc2oc(=O)ccc12)C1=CC(=O)C(C)(C)O1 (stereo not drawn) | > 100 µM
24 | O=C1c2ccccc2-c2nc(-c3ccncc3)cc3c2c1nc1ccccc13 | > 100 µM
25 | CC(=O)OC1CC2CC(=O)CC1N2C (stereo not drawn) | > 100 µM

What follows are compounds tested on OVCAR-3 ovarian (assay: growth of human tumour cells (NCI), 48 h).

Row | SMILES | TGI
26 | Cc1ccc(NC(=O)/C(CC2N=c3c(ccc4c(O)c5ccccc5c(O)c34)=NC2O)=N/NC(C)(C)C)cc1 (stereo not drawn) | 51.7 µM
27 | COc1ccc(-c2csc(-n3c(-c4ccccc4)nc4c(Br)cc(Br)cc4c3=O)n2)cc1 | > 100 µM
28 | CC(CCOc1c2ccoc2cc2oc(=O)ccc12)C1=CC(=O)C(C)(C)O1 (stereo not drawn) | > 100 µM
29 | O=C1c2ccccc2-c2nc(-c3ccncc3)cc3c2c1nc1ccccc13 | 12.8 µM
30 | CC(=O)OC1CC2CC(=O)CC1N2C (stereo not drawn) | > 100 µM

What follows are compounds tested on OVCAR-4 ovarian (assay: growth of human tumour cells (NCI), 48 h).

Row | SMILES | TGI
31 | Cc1ccc(NC(=O)/C(CC2N=c3c(ccc4c(O)c5ccccc5c(O)c34)=NC2O)=N/NC(C)(C)C)cc1 (stereo not drawn) | 45.1 µM
32 | COc1ccc(-c2csc(-n3c(-c4ccccc4)nc4c(Br)cc(Br)cc4c3=O)n2)cc1 | > 100 µM
33 | CC(CCOc1c2ccoc2cc2oc(=O)ccc12)C1=CC(=O)C(C)(C)O1 (stereo not drawn) | > 100 µM
34 | O=C1c2ccccc2-c2nc(-c3ccncc3)cc3c2c1nc1ccccc13 | > 100 µM
35 | CC(=O)OC1CC2CC(=O)CC1N2C (stereo not drawn) | > 100 µM

The compounds below were run on OVCAR-5 ovarian (assay: growth of human tumour cells (NCI), 48 h).

Row | SMILES | TGI
36 | Cc1ccc(NC(=O)/C(CC2N=c3c(ccc4c(O)c5ccccc5c(O)c34)=NC2O)=N/NC(C)(C)C)cc1 (stereo not drawn) | > 100 µM
37 | COc1ccc(-c2csc(-n3c(-c4ccccc4)nc4c(Br)cc(Br)cc4c3=O)n2)cc1 | > 100 µM
38 | CC(CCOc1c2ccoc2cc2oc(=O)ccc12)C1=CC(=O)C(C)(C)O1 (stereo not drawn) | > 100 µM
39 | O=C1c2ccccc2-c2nc(-c3ccncc3)cc3c2c1nc1ccccc13 | > 100 µM
40 | CC(=O)OC1CC2CC(=O)CC1N2C (stereo not drawn) | > 100 µM

Each compound was assayed on OVCAR-8 ovarian (assay: growth of human tumour cells (NCI), 48 h).

Row | SMILES | TGI
41 | Cc1ccc(NC(=O)/C(CC2N=c3c(ccc4c(O)c5ccccc5c(O)c34)=NC2O)=N/NC(C)(C)C)cc1 (stereo not drawn) | 21.9 µM
42 | COc1ccc(-c2csc(-n3c(-c4ccccc4)nc4c(Br)cc(Br)cc4c3=O)n2)cc1 | > 100 µM
43 | CC(CCOc1c2ccoc2cc2oc(=O)ccc12)C1=CC(=O)C(C)(C)O1 (stereo not drawn) | > 100 µM
44 | O=C1c2ccccc2-c2nc(-c3ccncc3)cc3c2c1nc1ccccc13 | > 100 µM
45 | CC(=O)OC1CC2CC(=O)CC1N2C (stereo not drawn) | > 100 µM

The compounds below were run on PC-3 prostate (assay: growth of human tumour cells (NCI), 48 h).

Row | SMILES | TGI
46 | Cc1ccc(NC(=O)/C(CC2N=c3c(ccc4c(O)c5ccccc5c(O)c34)=NC2O)=N/NC(C)(C)C)cc1 (stereo not drawn) | 78.1 µM
47 | COc1ccc(-c2csc(-n3c(-c4ccccc4)nc4c(Br)cc(Br)cc4c3=O)n2)cc1 | > 100 µM
48 | CC(CCOc1c2ccoc2cc2oc(=O)ccc12)C1=CC(=O)C(C)(C)O1 (stereo not drawn) | > 100 µM
49 | O=C1c2ccccc2-c2nc(-c3ccncc3)cc3c2c1nc1ccccc13 | > 100 µM
50 | CC(=O)OC1CC2CC(=O)CC1N2C (stereo not drawn) | > 100 µM

What follows are compounds tested on RPMI-8226 leukemia (assay: growth of human tumour cells (NCI), 48 h).

Row | SMILES | TGI
51 | COc1ccc(-c2csc(-n3c(-c4ccccc4)nc4c(Br)cc(Br)cc4c3=O)n2)cc1 | 31 µM
52 | CC(CCOc1c2ccoc2cc2oc(=O)ccc12)C1=CC(=O)C(C)(C)O1 (stereo not drawn) | > 100 µM
53 | O=C1c2ccccc2-c2nc(-c3ccncc3)cc3c2c1nc1ccccc13 | > 100 µM
54 | CC(=O)OC1CC2CC(=O)CC1N2C (stereo not drawn) | > 100 µM

Each compound was assayed on RXF 393 renal (assay: growth of human tumour cells (NCI), 48 h).

Row | SMILES | TGI
55 | Cc1ccc(NC(=O)/C(CC2N=c3c(ccc4c(O)c5ccccc5c(O)c34)=NC2O)=N/NC(C)(C)C)cc1 (stereo not drawn) | 44.2 µM
56 | COc1ccc(-c2csc(-n3c(-c4ccccc4)nc4c(Br)cc(Br)cc4c3=O)n2)cc1 | 76.4 µM
57 | CC(CCOc1c2ccoc2cc2oc(=O)ccc12)C1=CC(=O)C(C)(C)O1 (stereo not drawn) | > 100 µM
58 | CC(=O)OC1CC2CC(=O)CC1N2C (stereo not drawn) | > 100 µM

What follows are compounds tested on SF-268 CNS (assay: growth of human tumour cells (NCI), 48 h).

Row | SMILES | TGI
59 | Cc1ccc(NC(=O)/C(CC2N=c3c(ccc4c(O)c5ccccc5c(O)c34)=NC2O)=N/NC(C)(C)C)cc1 (stereo not drawn) | 59 µM
60 | COc1ccc(-c2csc(-n3c(-c4ccccc4)nc4c(Br)cc(Br)cc4c3=O)n2)cc1 | 67.1 µM
61 | CC(CCOc1c2ccoc2cc2oc(=O)ccc12)C1=CC(=O)C(C)(C)O1 (stereo not drawn) | > 100 µM
62 | CC(=O)OC1CC2CC(=O)CC1N2C (stereo not drawn) | > 100 µM

Each compound was assayed on SF-295 CNS (assay: growth of human tumour cells (NCI), 48 h).

Row | SMILES | TGI
63 | Cc1ccc(NC(=O)/C(CC2N=c3c(ccc4c(O)c5ccccc5c(O)c34)=NC2O)=N/NC(C)(C)C)cc1 (stereo not drawn) | > 100 µM
64 | COc1ccc(-c2csc(-n3c(-c4ccccc4)nc4c(Br)cc(Br)cc4c3=O)n2)cc1 | > 100 µM
65 | CC(CCOc1c2ccoc2cc2oc(=O)ccc12)C1=CC(=O)C(C)(C)O1 (stereo not drawn) | > 100 µM
66 | O=C1c2ccccc2-c2nc(-c3ccncc3)cc3c2c1nc1ccccc13 | 29.5 µM
67 | CC(=O)OC1CC2CC(=O)CC1N2C (stereo not drawn) | > 100 µM

These compounds were tested on SF-539 CNS (assay: growth of human tumour cells (NCI), 48 h).

Row | SMILES | TGI
68 | Cc1ccc(NC(=O)/C(CC2N=c3c(ccc4c(O)c5ccccc5c(O)c34)=NC2O)=N/NC(C)(C)C)cc1 (stereo not drawn) | 25.9 µM
